# Data taken from paper PMC2710614 (Chemistry & biology, 2009).
# Target: TrpRS (Escherichia coli, UniProt P00954)
# Experiment: ATP-PPi exchange of gamma-18O4-ATP, MALDI-TOFMS
# Format: biochemical
# Details: 1 mM amino acid, 1 mM gamma-18O4-ATP, 5 mM MgCl2, 5 mM PPi, 20 mM Tris pH 7.5, 30 min at 25 °C
compound,measurement,value
N[C@@H](Cc1c[nH]c2ccccc12)C(=O)O [Trp],%γ-^18O4-ATP exchange,9.7 ± 1.6%
